Measurements: ChEMBL document CHEMBL1201862, “PubChem BioAssay data set” (2004)
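Interpolation was linear, between the two tested concentrations surrounding the appropriate level; five concentrations were tested over 48 hours in 96-well plates. GI50 = concentration required for 50% inhibition of growth.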 Calls of active or inactive are those of the source. No stated cut-off is given here; in the data, active = GI50 up to about 1.1 µM and inactive = higher.

Legend:
Assay in all cases: NCI-60 cell line screen, 48 h
CAKI-1 = test system: CAKI-1
ACHN = test system: ACHN
SK-MEL-5 = test system: SK-MEL-5
SNB-75 = test system: SNB-75
U-251 = test system: U-251
MDA-N = test system: MDA-N
MCF7 = test system: MCF7
A549 = test system: A549
UACC-257 = test system: UACC-257
A498 = test system: A498
NCI-H23 = test system: NCI-H23
EKVX = test system: EKVX
NCI-H460 = test system: NCI-H460
K562 = test system: K562
SK-MEL-2 = test system: SK-MEL-2
SW-620 = test system: SW-620
COLO 205 = test system: COLO 205
MOLT-4 = test system: MOLT-4
SR = test system: SR

Measured: GI50

CN(C)/N=N/c1ccc2[nH]c(=O)[nH]c2c1
inactive: CAKI-1 > 100 µM | ACHN > 100 µM | SK-MEL-5 > 100 µM | SNB-75 > 100 µM | U-251 > 100 µM | MDA-N > 100 µM | MCF7 > 100 µM | A549 > 100 µM | UACC-257 > 100 µM | A498 > 100 µM | NCI-H23 > 100 µM | EKVX > 100 µM | NCI-H460 > 100 µM | K562 > 100 µM | SK-MEL-2 > 100 µM | SW-620 > 100 µM | COLO 205 > 100 µM

CCN(C(=O)N[C@@H](Cc1ccccc1)C(=O)N[C@@H](CC(C)C)C(=O)OC)c1ccccc1
inactive: CAKI-1 32.6 µM | ACHN 21.3 µM | U-251 25.9 µM | MDA-N 69.3 µM | MCF7 24 µM | A549 30.5 µM | UACC-257 23.2 µM | NCI-H23 24 µM | EKVX 18.7 µM | NCI-H460 12.4 µM | MOLT-4 15.8 µM | K562 31.3 µM | SR 6.18 µM | SK-MEL-2 61 µM | SW-620 25.4 µM | COLO 205 18 µM

CCCNC1=C2C[C@@H](C)C[C@@H](OC)[C@@H](OC(=O)CCCN)[C@H](C)/C=C(\C)[C@@H](OC(N)=O)[C@H](OC)/C=C\C=C(/C)C(=O)NC(=CC1=O)C2=O
inactive: CAKI-1 20.3 µM | ACHN 19.4 µM | SK-MEL-5 9.29 µM | U-251 11.4 µM | MDA-N 10.3 µM | MCF7 7.69 µM | A549 15.7 µM | A498 21.8 µM | NCI-H23 11.6 µM | EKVX 17.6 µM | NCI-H460 11.2 µM | MOLT-4 6.9 µM | K562 4.75 µM | SR 7.98 µM | SK-MEL-2 14.9 µM | SW-620 10.6 µM | COLO 205 3.52 µM

CC(C)OC(=O)[C@@H](O)[C@H](CO)C1=CC([Si](C)(C)c2ccccc2)=CON1
inactive: CAKI-1 > 100 µM | ACHN > 100 µM | SK-MEL-5 > 100 µM | SNB-75 1.26 µM | U-251 > 100 µM | MCF7 > 100 µM | A549 > 100 µM | UACC-257 > 100 µM | A498 > 100 µM | NCI-H23 > 100 µM | EKVX > 100 µM | NCI-H460 > 100 µM | MOLT-4 > 100 µM | K562 > 100 µM | SR > 100 µM | SK-MEL-2 > 100 µM | SW-620 > 100 µM | COLO 205 > 100 µM

CCCCC1(O)CC2CC1C(C)C2(C)C (stereo unspecified)
inactive: CAKI-1 > 100 µM | SK-MEL-5 > 100 µM | SNB-75 > 100 µM | U-251 > 100 µM | MDA-N > 100 µM | MCF7 > 100 µM | A549 > 100 µM | UACC-257 > 100 µM | NCI-H23 > 100 µM | EKVX > 100 µM | MOLT-4 93.3 µM | K562 > 100 µM | SR 44.8 µM | SW-620 > 100 µM | COLO 205 > 100 µM

CCOC(=O)c1c(N2CCCC2)ncn(C)c1=S
inactive: CAKI-1 > 100 µM | ACHN > 100 µM | SK-MEL-5 > 100 µM | U-251 > 100 µM | MCF7 > 100 µM | A549 > 100 µM | UACC-257 > 100 µM | A498 > 100 µM | NCI-H23 > 100 µM | EKVX > 100 µM | NCI-H460 > 100 µM | MOLT-4 > 100 µM | K562 > 100 µM | SR > 100 µM | SK-MEL-2 > 100 µM | SW-620 > 100 µM | COLO 205 > 100 µM

O=C1NC(O)c2cc3ccccc3cc2O1 (stereo unspecified)
inactive: ACHN > 100 µM | SK-MEL-5 56.5 µM | SNB-75 79.6 µM | U-251 26.5 µM | MCF7 29.6 µM | A549 > 100 µM | UACC-257 61.1 µM | NCI-H23 42.7 µM | EKVX > 100 µM | NCI-H460 > 100 µM | MOLT-4 30.5 µM | K562 34.9 µM | SR 24.3 µM | SW-620 61.1 µM | COLO 205 > 100 µM

Oc1cc(N2CCCC2)ccc1/C=N/N1C(=S)N(c2ccccc2)C(=N\c2ccccc2)/C1=N/c1ccccc1
inactive: CAKI-1 > 100 µM | ACHN > 100 µM | SK-MEL-5 73.3 µM | U-251 31.2 µM | MDA-N > 100 µM | MCF7 70.1 µM | A549 > 100 µM | UACC-257 > 100 µM | NCI-H23 87.7 µM | EKVX > 100 µM | NCI-H460 > 100 µM | MOLT-4 > 100 µM | K562 > 100 µM | SR > 100 µM | SK-MEL-2 > 100 µM | SW-620 87.9 µM | COLO 205 > 100 µM

CC(C)(C)c1ccc(O)c(Br)c1
inactive: ACHN > 100 µM | SK-MEL-5 > 100 µM | SNB-75 15.1 µM | U-251 > 100 µM | MDA-N > 100 µM | MCF7 > 100 µM | A549 > 100 µM | UACC-257 26.2 µM | A498 > 100 µM | NCI-H23 > 100 µM | EKVX > 100 µM | NCI-H460 > 100 µM | MOLT-4 > 100 µM | K562 > 100 µM | SR 37.3 µM | SK-MEL-2 > 100 µM | SW-620 > 100 µM | COLO 205 > 100 µM

CCOC(=O)c1nc2ccc(C(F)(F)F)cc2nc1Oc1cc(OC)c(OC)c(OC)c1
inactive: ACHN 8.17 µM | SK-MEL-5 23.1 µM | SNB-75 19.5 µM | U-251 55.6 µM | MDA-N > 100 µM | MCF7 > 100 µM | A549 53.7 µM | UACC-257 40.4 µM | A498 > 100 µM | EKVX 35.3 µM | NCI-H460 42.5 µM | MOLT-4 > 100 µM | K562 36.7 µM | SK-MEL-2 > 100 µM | SW-620 47.8 µM | COLO 205 17.7 µM

CNC(=S)/C(C#N)=C(\N)N1CCCC1
inactive: CAKI-1 > 100 µM | ACHN > 100 µM | SK-MEL-5 > 100 µM | U-251 > 100 µM | MDA-N > 100 µM | A549 > 100 µM | A498 > 100 µM | NCI-H23 > 100 µM | EKVX > 100 µM | NCI-H460 > 100 µM | MOLT-4 > 100 µM | K562 > 100 µM | SR > 100 µM | SK-MEL-2 > 100 µM | SW-620 > 100 µM | COLO 205 > 100 µM

CC(O)C1CC1(CO)CNc1cc(Cl)nc(N)n1 (stereo unspecified)
inactive: CAKI-1 > 100 µM | ACHN > 100 µM | SK-MEL-5 > 100 µM | SNB-75 > 100 µM | U-251 > 100 µM | MDA-N > 100 µM | MCF7 > 100 µM | A549 > 100 µM | UACC-257 > 100 µM | NCI-H23 > 100 µM | EKVX > 100 µM | NCI-H460 > 100 µM | MOLT-4 > 100 µM | K562 > 100 µM | SR > 100 µM | SK-MEL-2 > 100 µM | SW-620 > 100 µM | COLO 205 > 100 µM

C=C(C(=O)O)C1CCC(CC/C=C(\C)CC/C=C(\C)CCC=C(C)C)CO1 (stereo unspecified)
inactive: CAKI-1 32.3 µM | ACHN 28.6 µM | SK-MEL-5 12.5 µM | SNB-75 > 100 µM | U-251 20.1 µM | MDA-N 11 µM | MCF7 5.97 µM | A549 7.89 µM | UACC-257 15.3 µM | A498 19.4 µM | NCI-H23 18.5 µM | EKVX 13.3 µM | SK-MEL-2 17.3 µM | SW-620 15.7 µM | COLO 205 11.2 µM

O=C(NCCCN1CCN(CCCNC(=O)Nc2cccc3ccccc23)CC1)Nc1cccc2ccccc12
inactive: CAKI-1 16.2 µM | ACHN 16.3 µM | SK-MEL-5 16.6 µM | SNB-75 15.5 µM | U-251 5.46 µM | MDA-N 15.6 µM | MCF7 17.5 µM | A549 17.7 µM | UACC-257 13.2 µM | A498 15.3 µM | NCI-H23 16.2 µM | EKVX 9.82 µM | K562 19.9 µM | SK-MEL-2 18.7 µM | SW-620 8.32 µM | COLO 205 15.7 µM

CC/C(=C\c1ccc(OC)cc1)c1ccc(OC)cc1
inactive: CAKI-1 > 100 µM | ACHN > 100 µM | SK-MEL-5 30.1 µM | SNB-75 > 100 µM | U-251 > 100 µM | MDA-N > 100 µM | MCF7 > 100 µM | A549 > 100 µM | UACC-257 38.5 µM | A498 > 100 µM | NCI-H23 86.3 µM | EKVX > 100 µM | NCI-H460 > 100 µM | MOLT-4 52.5 µM | K562 > 100 µM | SK-MEL-2 65.6 µM | SW-620 > 100 µM | COLO 205 > 100 µM

COc1ccc2c(c1)CCN1CCCc3ccccc3C21 (stereo unspecified)
inactive: CAKI-1 54.1 µM | ACHN 54.2 µM | SK-MEL-5 58.5 µM | SNB-75 22 µM | U-251 37.2 µM | MCF7 25.4 µM | A549 50.5 µM | UACC-257 41.9 µM | A498 > 100 µM | NCI-H23 45.8 µM | EKVX > 100 µM | MOLT-4 32.1 µM | K562 30.1 µM | SR 31.8 µM | SK-MEL-2 46.3 µM | SW-620 52 µM | COLO 205 27.6 µM
